We go through 36 compounds from ChEMBL document CHEMBL1130562, “Potent and selective inhibitors of the Abl-kinase: phenylamino-pyrimidine (PAP) derivatives” (Bioorg Med Chem Lett, 1997).

In data set [1] the target is cAMP-dependent protein kinase (PKA) (Homo sapiens, UniProt P22694+P17612+P22612). The data set can be described thus: Inhibition of protein kinase A. It is filed as protein assay, unidentified.
Data set [2] concerns the target Tyrosine-protein kinase ABL1 (Homo sapiens, UniProt P00519).
Description: Inhibition of v-Abl tyrosine kinase.
In data set [3] the target is Protein kinase C delta type (Homo sapiens, UniProt Q05655). In words: Inhibition of protein kinase C delta.
Sequence of Protein kinase C delta type (Q05655 whole entry): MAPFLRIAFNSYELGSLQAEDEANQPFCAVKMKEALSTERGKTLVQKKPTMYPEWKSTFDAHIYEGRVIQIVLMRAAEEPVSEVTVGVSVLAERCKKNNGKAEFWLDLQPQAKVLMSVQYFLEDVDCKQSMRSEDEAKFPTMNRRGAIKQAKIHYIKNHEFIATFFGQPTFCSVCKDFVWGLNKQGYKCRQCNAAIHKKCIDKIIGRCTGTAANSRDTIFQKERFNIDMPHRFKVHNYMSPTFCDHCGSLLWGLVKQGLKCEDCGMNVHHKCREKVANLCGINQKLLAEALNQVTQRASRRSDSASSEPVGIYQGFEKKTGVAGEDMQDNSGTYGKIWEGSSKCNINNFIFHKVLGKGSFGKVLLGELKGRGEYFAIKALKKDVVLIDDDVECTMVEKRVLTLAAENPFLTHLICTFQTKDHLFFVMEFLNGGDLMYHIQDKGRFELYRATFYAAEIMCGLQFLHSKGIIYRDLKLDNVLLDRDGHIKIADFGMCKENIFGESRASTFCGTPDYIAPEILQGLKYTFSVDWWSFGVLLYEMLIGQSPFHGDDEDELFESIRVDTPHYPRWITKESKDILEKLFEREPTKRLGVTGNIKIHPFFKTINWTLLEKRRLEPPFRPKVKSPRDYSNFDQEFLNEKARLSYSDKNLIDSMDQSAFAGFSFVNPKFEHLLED
Data set [4] addresses Protein kinase C alpha type (Homo sapiens, UniProt P17252). The data set can be described thus: Inhibition of protein kinase C alpha.
Data set [5] addresses Platelet-derived growth factor receptor (Homo sapiens, UniProt P09619+P16234). The data set can be described thus: Inhibition of the platelet-derived growth factor receptor.
Data set [6] concerns the target Epidermal growth factor receptor (Homo sapiens, UniProt P00533).
Description: Inhibition of the epidermal growth factor receptor.
The target of data set [7] is Proto-oncogene tyrosine-protein kinase Src (Homo sapiens, UniProt P12931).
Sequence of Proto-oncogene tyrosine-protein kinase Src (P12931 2-536 limits assumed): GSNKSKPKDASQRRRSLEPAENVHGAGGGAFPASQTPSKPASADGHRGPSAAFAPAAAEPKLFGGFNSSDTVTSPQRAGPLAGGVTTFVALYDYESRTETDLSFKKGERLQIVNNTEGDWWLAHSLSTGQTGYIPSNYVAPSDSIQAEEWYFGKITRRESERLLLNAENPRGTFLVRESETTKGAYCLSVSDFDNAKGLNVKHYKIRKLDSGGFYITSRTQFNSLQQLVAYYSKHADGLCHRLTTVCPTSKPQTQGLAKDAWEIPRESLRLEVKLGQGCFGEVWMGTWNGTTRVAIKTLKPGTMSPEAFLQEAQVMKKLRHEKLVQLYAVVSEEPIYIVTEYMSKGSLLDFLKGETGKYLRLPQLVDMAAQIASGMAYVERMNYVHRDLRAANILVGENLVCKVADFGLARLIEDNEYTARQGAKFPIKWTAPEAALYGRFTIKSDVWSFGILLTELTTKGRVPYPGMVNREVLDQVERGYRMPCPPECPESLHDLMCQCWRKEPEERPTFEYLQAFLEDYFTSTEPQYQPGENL
Description: Inhibition of c-Src-tyrosine kinase.
Data set [8] is described as follows: Dissociation constant pKa was determined. The class given is physicochemical.

Each structure is given as a SMILES string.

Sequence of Tyrosine-protein kinase ABL1 (P00519 whole entry, looked up): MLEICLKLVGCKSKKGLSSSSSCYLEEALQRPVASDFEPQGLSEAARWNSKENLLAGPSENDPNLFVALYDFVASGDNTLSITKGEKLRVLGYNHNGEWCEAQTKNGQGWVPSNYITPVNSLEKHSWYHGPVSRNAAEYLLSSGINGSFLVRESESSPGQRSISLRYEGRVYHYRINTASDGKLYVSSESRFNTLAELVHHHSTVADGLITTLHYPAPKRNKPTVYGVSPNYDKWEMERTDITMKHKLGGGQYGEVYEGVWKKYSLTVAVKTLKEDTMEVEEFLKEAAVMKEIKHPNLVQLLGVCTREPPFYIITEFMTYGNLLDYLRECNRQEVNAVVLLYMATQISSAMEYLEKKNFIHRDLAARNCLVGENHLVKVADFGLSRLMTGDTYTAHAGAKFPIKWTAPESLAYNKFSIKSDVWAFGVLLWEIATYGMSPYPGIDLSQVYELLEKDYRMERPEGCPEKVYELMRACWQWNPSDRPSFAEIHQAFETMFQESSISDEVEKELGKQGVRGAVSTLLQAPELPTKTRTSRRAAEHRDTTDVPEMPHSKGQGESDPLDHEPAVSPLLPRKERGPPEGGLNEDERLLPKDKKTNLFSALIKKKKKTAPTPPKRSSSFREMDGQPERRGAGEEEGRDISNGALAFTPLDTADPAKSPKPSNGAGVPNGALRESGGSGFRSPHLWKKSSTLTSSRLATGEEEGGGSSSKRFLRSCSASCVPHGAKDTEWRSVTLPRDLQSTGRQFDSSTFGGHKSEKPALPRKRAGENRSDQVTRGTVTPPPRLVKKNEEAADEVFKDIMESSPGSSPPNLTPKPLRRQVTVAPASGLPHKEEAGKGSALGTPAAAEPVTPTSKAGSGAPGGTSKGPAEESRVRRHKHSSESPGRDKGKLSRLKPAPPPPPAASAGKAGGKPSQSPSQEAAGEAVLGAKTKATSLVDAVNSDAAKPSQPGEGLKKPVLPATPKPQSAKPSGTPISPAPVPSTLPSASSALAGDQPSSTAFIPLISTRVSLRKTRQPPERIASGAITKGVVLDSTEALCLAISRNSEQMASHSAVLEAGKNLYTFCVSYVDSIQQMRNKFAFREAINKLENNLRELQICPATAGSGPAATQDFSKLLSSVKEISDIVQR
Sequence of Epidermal growth factor receptor (P00533 whole entry): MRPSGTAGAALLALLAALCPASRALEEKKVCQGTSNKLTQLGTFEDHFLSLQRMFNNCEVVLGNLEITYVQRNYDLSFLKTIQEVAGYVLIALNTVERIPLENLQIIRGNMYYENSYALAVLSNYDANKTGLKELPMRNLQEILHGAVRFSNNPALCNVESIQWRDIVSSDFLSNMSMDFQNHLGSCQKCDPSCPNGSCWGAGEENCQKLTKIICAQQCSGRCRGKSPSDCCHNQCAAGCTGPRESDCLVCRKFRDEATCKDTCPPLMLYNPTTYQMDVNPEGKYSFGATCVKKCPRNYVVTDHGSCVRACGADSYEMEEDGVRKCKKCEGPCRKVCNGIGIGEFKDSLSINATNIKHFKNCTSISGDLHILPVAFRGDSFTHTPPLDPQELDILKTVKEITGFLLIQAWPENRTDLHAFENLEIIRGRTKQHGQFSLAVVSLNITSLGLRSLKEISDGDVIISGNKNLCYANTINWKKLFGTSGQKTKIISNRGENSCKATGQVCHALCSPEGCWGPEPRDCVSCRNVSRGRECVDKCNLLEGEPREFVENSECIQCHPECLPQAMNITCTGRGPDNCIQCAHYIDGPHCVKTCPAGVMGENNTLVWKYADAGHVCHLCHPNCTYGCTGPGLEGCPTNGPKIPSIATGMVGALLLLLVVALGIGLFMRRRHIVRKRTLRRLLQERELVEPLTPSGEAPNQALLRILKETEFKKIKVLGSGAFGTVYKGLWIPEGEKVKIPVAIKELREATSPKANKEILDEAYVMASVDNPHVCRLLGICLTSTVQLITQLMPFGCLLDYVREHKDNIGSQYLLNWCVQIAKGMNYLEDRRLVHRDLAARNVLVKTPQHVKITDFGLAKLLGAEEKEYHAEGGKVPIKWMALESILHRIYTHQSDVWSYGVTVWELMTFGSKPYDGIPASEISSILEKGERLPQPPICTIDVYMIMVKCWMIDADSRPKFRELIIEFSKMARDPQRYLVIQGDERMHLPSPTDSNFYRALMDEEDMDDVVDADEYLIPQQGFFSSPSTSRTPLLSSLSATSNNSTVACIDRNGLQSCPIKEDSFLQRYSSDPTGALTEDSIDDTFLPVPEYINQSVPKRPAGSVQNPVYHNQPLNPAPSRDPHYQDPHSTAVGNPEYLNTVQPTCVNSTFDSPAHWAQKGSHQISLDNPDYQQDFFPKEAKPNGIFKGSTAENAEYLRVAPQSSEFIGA

Consider `Cc1ccc(NC(=O)c2ccc3ccccc3c2)cc1Nc1nccc(-c2cccnc2)n1`, for which the results for the IC50 in data set [1] and in data set [2] were more than 100 µM and 0.2 µM, respectively.

In data set [1], `Cc1ccc(C(=O)Nc2ccc(C)c(Nc3nccc(-c4cccnc4)n3)c2)cc1` showed an IC50 of more than 100 µM.

Consider `Cc1ccc(NC(=O)c2ccccc2)cc1Nc1nccc(-c2cccnc2)n1`, for which the IC50 was more than 500 µM in data set [1] and 0.4 µM in data set [2].

On to `Cc1ccc(NC(=O)c2ccc(Cl)cc2)cc1Nc1nccc(-c2cccnc2)n1`, for which the IC50 was more than 100 µM in data set [3], more than 100 µM in data set [1] and 0.8 µM in data set [2].

As for `O=C(Nc1cccc(Nc2nccc(-c3cccnc3)n2)c1)c1ccccc1`, the results for the IC50 in data set [1] and in data set [2] were more than 500 µM and 0.4 µM, respectively.

Take `Cc1ccc(N)cc1Nc1nccc(-c2cccnc2)n1`: the values for the IC50 in data set [4], in data set [1] and in data set [2] were 240 µM, more than 500 µM and 1.5 µM, respectively.

For `c1cncc(-c2ccnc(Nc3cccc(-n4ccnc4)c3)n2)c1`, the IC50 is 18 µM in data set [5]; 21 µM in data set [3]; 1 µM in data set [4]; more than 500 µM in data set [1]; more than 100 µM in data set [6]; 1.6 µM in data set [7]. This compound also yielded an IC50 in data set [2] of 3.3 µM.

Turning to `O=C(Nc1cccc(Nc2nccc(-c3cccnc3)n2)c1)c1ccccn1`, the IC50 in data set [5] is more than 100 µM; in data set [1] it was more than 500 µM; in data set [7], 90 µM; in data set [2], 3.8 µM.

With `NCCCn1ccc2c(-c3ccnc(Nc4cccc(OC(F)(F)C(F)F)c4)n3)cccc21`, the IC50 stood at 5 µM in data set [5]; 4.4 µM in data set [3]; 0.18 µM in data set [4]; 2 µM in data set [1]; 0.53 µM in data set [6]; 0.5 µM in data set [7]. For the same compound, 0.35 µM corresponded to half-maximal inhibition in data set [2] (IC50).

For the compound `COc1ccccc1C(=O)Nc1cccc(Nc2nccc(-c3cccnc3)n2)c1`, the 50% inhibitory concentration (IC50) in data set [5] was 1 µM; in data set [3] it was more than 500 µM; in data set [4], 0.32 µM; in data set [1], more than 500 µM; in data set [6], 100 µM; in data set [7] it was more than 100 µM. The compound also gave an IC50 in data set [2] of 1.9 µM.

Regarding `Clc1cccc(Nc2nccc(-c3cccnc3)n2)c1`, the IC50 in data set [5] was more than 10 µM; in data set [3] it was 23 µM; in data set [4], 1.6 µM; in data set [1] it was more than 500 µM; in data set [6], more than 100 µM; in data set [7] it was more than 100 µM. This compound also had an IC50 in data set [2] of 1.5 µM.

In the case of `COc1ccccc1C(=O)Nc1ccc(C)c(Nc2nccc(-c3cccnc3)n2)c1`, the IC50 in data set [3] was more than 100 µM; in data set [4], 80 µM; in data set [1], more than 500 µM; in data set [2], 0.8 µM.

Turning to `O=C(Nc1cccc(Nc2nccc(-c3cccnc3)n2)c1)c1cccnc1`, the pKa in data set [8] came to 2.56. Also, the IC50 in data set [5] was 50 µM; in data set [3], 17 µM; in data set [4], 1.7 µM; in data set [1], more than 500 µM; in data set [6], more than 100 µM; in data set [7], 9 µM. This compound came in with an IC50 in data set [2] of 0.15 µM.

On to `O=C(Nc1cccc(Nc2nccc(-c3cccnc3)n2)c1)c1ccc(F)cc1`, for which the IC50 in data set [5] is 3 µM; in data set [1], more than 500 µM; in data set [6] it was more than 50 µM; in data set [7], more than 100 µM; in data set [2], 0.2 µM.

`CC(=O)Nc1ccc(C)c(Nc2nccc(-c3cccnc3)n2)c1`: the IC50 in data set [4] was 500 µM; in data set [1], more than 500 µM; in data set [2], 5.8 µM.

Turning to `FC(F)C(F)(F)Oc1cccc(Nc2nccc(-c3c[nH]c4ccccc34)n2)c1`, the IC50 is more than 10 µM in data set [5]; 1.4 µM in data set [3]; 0.29 µM in data set [4]; 73 µM in data set [1]; 1.8 µM in data set [6]; 2.2 µM in data set [7]. Further, in data set [2], the IC50 turned out to be 0.37 µM.

As for `O=C(Nc1cccc(Nc2nccc(-c3cccnc3)n2)c1)c1ccncc1`, the IC50 in data set [5] was more than 100 µM; in data set [3], 24 µM; in data set [4], 1.3 µM; in data set [1], more than 500 µM; in data set [6], more than 100 µM; in data set [7], 78 µM. The compound further had a half-inhibitory concentration (IC50) in data set [2] of 0.5 µM.

For `FC(F)C(F)(F)Oc1cccc(Nc2nccc(-c3ccncc3)n2)c1`, the IC50 in data set [5] is more than 10 µM; in data set [3], more than 100 µM; in data set [4], 0.3 µM; in data set [1], more than 500 µM; in data set [6], more than 100 µM; in data set [7], more than 100 µM. Besides, in data set [2], the IC50 is more than 100 µM.

For `O=[N+]([O-])c1cccc(Nc2nccc(-c3ccncc3)n2)c1`, the IC50 in data set [5] is more than 100 µM; in data set [3], more than 500 µM; in data set [4], 2.6 µM; in data set [1], more than 500 µM; in data set [6] it was more than 100 µM; in data set [7], more than 100 µM. In data set [2], this compound gave an IC50 of 61 µM.

Turning to `O=C(O)c1ccccc1C(=O)Nc1cccc(Nc2nccc(-c3cccnc3)n2)c1`, the half-inhibitory concentration (IC50) in data set [5] is more than 100 µM; in data set [1], more than 500 µM; in data set [7] it was 44 µM; in data set [2], 2 µM.

On to `O=[N+]([O-])c1cccc(Nc2nccc(-c3cccnc3)n2)c1`, for which the IC50 in data set [5] is more than 100 µM; in data set [3] it was more than 500 µM; in data set [4], 0.79 µM; in data set [1] it was more than 500 µM; in data set [6] it was 100 µM; in data set [7], 93 µM. In data set [2], this compound returned an IC50 of 34 µM.

Take `O=C(Nc1cccc(Nc2nccc(-c3cccnc3)n2)c1)c1cccs1`: the IC50 in data set [5] is 20 µM; in data set [1], more than 500 µM; in data set [6], more than 50 µM; in data set [7], 3 µM; in data set [2], 0.3 µM.

In the case of `CCCCCC(=O)Nc1cccc(Nc2nccc(-c3cccnc3)n2)c1`, the IC50 in data set [5] was 0.6 µM; in data set [3] it was 19 µM; in data set [4], 2 µM; in data set [6], more than 100 µM; in data set [7], 3.7 µM; in data set [2], 0.2 µM.

With `COC(=O)c1cccc(Nc2nccc(-c3cccnc3)n2)c1`, the IC50 in data set [5] was more than 10 µM; in data set [1], more than 500 µM; in data set [7], 90 µM; in data set [2], 5.1 µM.

Consider `CN1CCN(Cc2ccc(C(=O)Nc3cccc(Nc4nccc(-c5cccnc5)n4)c3)cc2)CC1`, for which the IC50 was 0.2 µM in data set [5]; 475 µM in data set [1]; more than 100 µM in data set [6]; 7.8 µM in data set [7]; 0.1 µM in data set [2].

In the case of `Nc1cccc(Nc2nccc(-c3ccncc3)n2)c1`, the IC50 in data set [5] was more than 10 µM; in data set [7] it was 16 µM; in data set [2], 0.6 µM.

In the case of `Nc1cccc(Nc2nccc(-c3cccnc3)n2)c1`, the IC50 in data set [5] is more than 100 µM; in data set [3], more than 500 µM; in data set [4], 210 µM; in data set [1], 6 µM; in data set [7], 14 µM; in data set [2], 0.7 µM.

`O=C(O)c1cccc(Nc2nccc(-c3cccnc3)n2)c1`: the half-maximal inhibitory concentration (IC50) in data set [5] was more than 10 µM; in data set [3] it was more than 100 µM; in data set [4], 45 µM; in data set [7], 126 µM; in data set [2], 8 µM.

With `FC(F)C(F)(F)Oc1cccc(Nc2nccc(-c3ccc(Cl)cc3)n2)c1`, the IC50 is more than 10 µM in data set [5]; more than 100 µM in data set [3]; 0.85 µM in data set [4]; more than 500 µM in data set [1]; more than 100 µM in data set [6]; more than 100 µM in data set [7]. For the same compound, in data set [2], the IC50 is more than 50 µM.

As for `c1ccc(Nc2nccc(-c3cccnc3)n2)cc1`, the IC50 in data set [5] was more than 10 µM; in data set [3] it was 39 µM; in data set [4], 10.5 µM; in data set [1] it was more than 500 µM; in data set [6] it was 100 µM; in data set [7], more than 100 µM. For the same compound, the IC50 in data set [2] was 1.8 µM.

In the case of `O=C(Nc1cccc(Nc2nccc(-c3cccnc3)n2)c1)C1CCCCC1`, the half-inhibitory concentration (IC50) in data set [5] is 0.8 µM; in data set [1] it was more than 500 µM; in data set [6], more than 100 µM; in data set [7], 46 µM; in data set [2], 0.45 µM.

As for `c1cc(Nc2nccc(-c3cccnc3)n2)cc(OCCn2ccnc2)c1`, the IC50 in data set [5] was more than 10 µM; in data set [3], 34 µM; in data set [4], 1.5 µM; in data set [1], 340 µM; in data set [6] it was 7.1 µM; in data set [7], 4.9 µM. The IC50 in data set [2] turned out to be 1 µM.

As to `N#Cc1ccc(C(=O)Nc2cccc(Nc3nccc(-c4cccnc4)n3)c2)cc1`, the IC50 is 1.5 µM in data set [5]; more than 500 µM in data set [3]; 0.35 µM in data set [4]; more than 500 µM in data set [1]; more than 100 µM in data set [6]; more than 100 µM in data set [7]. In data set [2], this compound had an IC50 of 1.3 µM.

Consider `Cc1ccc(C(=O)Nc2cccc(Nc3nccc(-c4cccnc4)n3)c2)cc1`, for which the half-inhibitory concentration (IC50) in data set [5] is 0.8 µM; in data set [1], more than 500 µM; in data set [6], more than 100 µM; in data set [7], more than 100 µM; in data set [2], 1 µM.

As for `NCCCNC(=O)c1cccc(Nc2nccc(-c3cccnc3)n2)c1`, the IC50 was more than 10 µM in data set [5], 9.8 µM in data set [7] and 0.4 µM in data set [2].

On to `O=[N+]([O-])c1cccc(Nc2nccc(-c3ccccn3)n2)c1`, for which the IC50 in data set [5] is more than 100 µM; in data set [3] it was more than 500 µM; in data set [4], 2.5 µM; in data set [1] it was more than 500 µM; in data set [6] it was more than 100 µM; in data set [7] it was more than 100 µM. The compound further came in with an IC50 in data set [2] of 1.2 µM.

Broadly, the IC50 is the concentration that inhibits the measured activity by half. Higher therefore signals a need for much substance. By pKa is commonly meant the pH at which an ionisable group is half protonated.
